Experimental data from patent publication US9828330B2, “Non-peptide BDNF neurotrophin mimetics” (PHARMATROPHIX, INC., priority 2013, dated 2017).
Where “and” joins values, the source holds several entries; their conditions need not be identical. Equal entries are not always repeated. Where two headings read alike, the source gives them in different places.

Experiments:
[1] = Brain-to-plasma ratio after intraperitoneal administration in male CD-1 mice (LC-MS/MS of plasma and brain homogenate); assay type: in vivo; conditions: for Kp at 1 h / Kp at 3 h / concentration at 1 h / concentration at 3 h: male, CD-1, mouse, ip; for Kp at 1 h / Kp at 3 h: brain/plasma
Procedure: (§1) In this study, the brain-to-plasma ratio of compounds of the invention was evaluated after intraperitoneal dosing in fasted male CD-1 mice. Test compounds were dosed at 50 mg/kg in sterile water for injection. Plasma and brain homogenate levels were determined at 1 and 3 hours post dose by LC-MS/MS. […] Penetration of the present compounds through the blood-brain barrier allows the compounds to exerts their receptor binding activity to achieve the therapeutic effects.
All data are expressed as ng/mL (equivalent to ng/g for calculation of brain:plasma ratio) of the free drug. Samples that were below the limit of quantitation were not used in the calculation of averages.
Brain-to-plasma ratios were determined by dividing the brain concentration in ng/g by the plasma concentration in ng/g.
Brain samples were homogenized with a Virsonic 100 ultrasonic homogenizer. Each brain sample was first weighed, and then an appropriate volume of 20:80 methanol:water was added to make a 4 mL/1 gram sample. Samples were then homogenized on ice, and stored frozen until analysis.
Standards samples were prepared in either CD-1 Mouse plasma containing K2EDTA as an anticoagulant or CD-1 mouse brain homogenate. Working solutions (200 μg/mL and/or 20 μg/mL for each test compound) was prepared in 50:50 ACN:water. Then, a nine-point calibration curve was prepared at concentrations of 2000, 1500, 1000, 500, 100, 50, 20, 10, and 5 ng/mL of each test compound by serial dilution; or for a high-sensitivity method, another nine point calibration curve was prepared at concentrations of 200, 150, 100, 50, 10, 5, 2, 1, and 0.5 ng/mL of each test compound by serial dilution. Standard samples were treated identically to the study samples.
Plasma and brain homogenate samples were extracted via acetonitrile precipitation on a Tomtec Quadra 96-Model 320 liquid handling system in a 96-well plate format.
HPLC Conditions • Instrument: Perkin Elmer series 200 micropumps and Autosampler • Column: Phenomenex Synergi Polar-RP, 4μ, 80A, 50×2.0 mm • Mobile Phase Buffer: 40 mM ammonium formate, pH 3.5 • Aqueous Reservoir (A): 10% buffer, 90% water • Organic Reservoir (B): 10% buffer, 90% acetonitrile • Gradient Program:
• Flow Rate: 400 μL/min • Injection Volume: […], • Run Time: 5.0 min • Column Temperature: ambient • Autosampler Wash Solution #1: ACN:IPA:H2O 40:30:30 (v/v/v) w/0.2% formic acid • Autosampler Wash Solution #2: MeOH:H2O 50:50 (v/v) Mass Spectrometer Conditions (for Calibration Curve from 5 to 2000 ng/mL) • Instrument: PE Sciex API 4000 • Interface: Electrospray (“Turbo Ion Spray”) • Mode: Multiple Reaction Monitoring (MRM) • Gases: CUR 20, GS1 20, GS2 10, CAD Medium, IS 5200 • Source Temperature: 500° C., ihe OFF • Voltages and Ions Monitored*:
Mass Spectrometer Conditions (for Calibration Curve from 0.5 to 200 ng/mL, High Sensitivity Method) • Instrument: PE Sciex API 4000 Q TRAP • Interface: Electrospray (“Turbo Ion Spray”) • Mode: Multiple Reaction Monitoring (MRM) • Gases: CUR 20, GS1 20, GS2 10, CAD Medium, IS 5200 • Source Temperature: 500° C., ihe OFF • Voltages and Ions Monitored*: […]

[2] = Observations and adverse reactions after intraperitoneal administration in CD-1 mice; assay type: in vivo; conditions: IP 50 mg/kg
Procedure: as §1

[3] = 1.0 hr after IP dosing at 50 mg/kg, individual fasted male CD-1 mice, 50 mg/kg
[4] = 1.0 hr after IP dosing at 50 mg/kg, individual mice, 50 mg/kg
[5] = 1.0 hr after IP dosing at 50 mg/kg, mean of mice, 50 mg/kg
[6] = 3.0 hr after IP dosing at 50 mg/kg, individual fasted male CD-1 mice, BLQ = below 0.5 ng/mL, 50 mg/kg
[7] = 3.0 hr after IP dosing at 50 mg/kg, individual mice, 50 mg/kg
[8] = 50 mg/kg, 1.0 hr after IP dosing at 50 mg/kg, mean of mice, read-out: Average B:P Ratio
[9] = 50 mg/kg, 3.0 hr after IP dosing at 50 mg/kg, individual mice, read-out: B:P Ratio
[10] = 50 mg/kg, 3.0 hr after IP dosing at 50 mg/kg, mean of mice (Compound-3: one animal only), read-out: Average B:P Ratio
[11] = plasma, 50 mg/kg, 1.0 hr after IP dosing at 50 mg/kg, individual mice, read-out: Plasma Conc

Brain Tissue Homogen. Conc [1, 3] | B:P Ratio [1, 4] | Brain Tissue Conc [1, 4] | Plasma Conc [1, 4] | Average B:P Ratio [1, 5] | Brain Tissue Homogen. Conc [1, 6] | Plasma Conc [1, 7] | Kp at 1 h [1, 8] | Kp at 3 h [1, 9] | Kp at 3 h [1, 10] | concentration at 1 h [1, 11] [ng/mL] | SMILES | Adverse effects after intraperitoneal administration [2] | other results
41.6 µg/mL and 122 µg/mL and 25.2 µg/mL | 0.58 and 0.99 and 0.34 | 208 µg/mL and 610 µg/mL and 126 µg/mL | 614 ng/mL and 369 ng/mL | 0.638 | 26.3 µg/mL and 12.2 µg/mL and 6.22 µg/mL | 202 ng/mL and 108 ng/mL and 63.1 ng/mL | 0.638 ± 0.33 | 0.65 | 0.57 ± 0.079 | 359 | COCCN(CCOC)c1ccc(C(C)c2ccc(N(CCOC)CCOC)cc2)cc1 [Compound-2, 4,4′-(ethane-1,1-diyl)bis(N,N-bis(2-methoxyethyl)aniline)] | No adverse effects were observed | B:P Ratio [1, 7]: 0.56 and 0.49; Brain Tissue Conc [1, 7]: 132 µg/mL and 61.0 µg/mL and 31.1 µg/mL; Average B:P Ratio ([1]; 3.0 hr after IP dosing at 50 mg/kg, mean of mice (Compound-3: one animal only), 50 mg/kg): 0.570
2.87 µg/mL and 2.24 µg/mL | 0.27 and 0.36 | 14.4 µg/mL and 11.2 µg/mL | 52.6 ng/mL and 30.9 ng/mL | 0.328 | BLQ | 2.02 ng/mL and 1.67 ng/mL | 0.328 ± 0.048 | 1.14 | 1.14 | 31.8 | CC(c1ccc(N(CCO)CCO)cc1)c1ccc(N(CCO)CCO)cc1 [Compound-3, 2,2′,2″,2′″-((ethane-1,1-diylbis(4,1-phenylene))bis(azanetriyl))-tetraethanol] | No adverse effects were observed | Average B:P Ratio ([1]; 3.0 hr after IP dosing at 50 mg/kg, mean of mice (Compound-3: one animal only)): 1.14; concentration at 1 h ([1]; brain homogenate, 50 mg/kg, 1.0 hr after IP dosing at 50 mg/kg, individual fasted male CD-1 mice, read-out: Brain Tissue Homogen. Conc): 2210 ng/mL; concentration at 3 h ([1]; brain homogenate, 50 mg/kg, 3.0 hr after IP dosing at 50 mg/kg, individual fasted male CD-1 mice, BLQ = below 0.5 ng/mL, read-out: Brain Tissue Homogen. Conc): 611 ng/mL; concentration at 1 h ([1]; brain, 50 mg/kg, 1.0 hr after IP dosing at 50 mg/kg, individual mice, read-out: Brain Tissue Conc): 11100 ng/mL; concentration at 3 h ([1]; brain, 50 mg/kg, 3.0 hr after IP dosing at 50 mg/kg, individual mice, read-out: Brain Tissue Conc): 3060 ng/mL; Kp at 1 h ([1]; 50 mg/kg, 1.0 hr after IP dosing at 50 mg/kg, individual mice, read-out: B:P Ratio): 0.35; concentration at 3 h ([1]; plasma, 50 mg/kg, 3.0 hr after IP dosing at 50 mg/kg, individual mice, read-out: Plasma Conc): 2.67 ng/mL
